Assay results published in PMC6934184, “Selective DNA-PKcs inhibition extends the therapeutic index of localized radiotherapy and chemotherapy” (The Journal of Clinical Investigation, 2019).

Tested on: remaining 398 kinases
Assay: SelectScreen Broad Assay Panel, summary
Type: biochemical
Conditions: 1 µM
Protocol: The in vitro kinase selectivity of NU5455 was determined using the SelectScreen Broad Assay Panel (Thermo Fisher Scientific) involving activity and binding assays (Supplemental Table 1). […] Class IA PI3Ks were measured using the p85α subunit.
Kinase [ATP] % Assay Kinase [ATP] % Assay Kinase [ATP] % Assay Kinase [ATP] % Assay
DNA-PK Km app 98.3 Z LATS2 n/a 4.7 L KIT D820E n/a 1.3 L GSK3B (GSK3 beta) Km app -2.5 Z
PIK3C3 (hVPS34) Km app 85.9 A PRKCZ (PKC zeta) Km app 4.7 Z GRK1 n/a 1.3 L BMPR2 n/a -2.5 L
PIK3C2B (PI3K-C2 beta) 10 28.9 A FGFR1 Km app 4.7 Z BRSK2 n/a 1.2 L CDC42 BPB (MRCKB) Km app -2.5 Z
SNF1LK2 Km app 26.6 Z MINK1 Km app 4.6 Z NUAK1 (ARK5) Km app 1.2 A AMPK (A2/B2/G2) n/a -2.6 L
HCK Km app 18.0 Z CSF1R (FMS) Km app 4.3 Z CDK9/cyclin K n/a 1.0 L PRKG1 Km app -2.7 Z
NEK2 Km app 17.8 Z CSNK1G3 (CK1 gamma 3) Km app 4.2 Z NUAK2 n/a 1.0 L KIT T670E n/a -2.8 L
ALK Km app 17.3 Z STK32C (YANK3) n/a 4.2 L CDK2/cyclin O n/a 0.9 L ERBB4 (HER4) Km app -2.8 Z
FGFR3 K650M n/a 16.5 L STK22D (TSSK1) Km app 4.2 Z CAMKK2 (CaMKK beta) n/a 0.9 L PLK4 n/a -2.8 L
SIK3 n/a 16.1 L TAOK3 (JIK) n/a 4.2 L FGFR3 Km app 0.9 Z GRK7 Km app -3.0 Z
LYN A Km app 15.2 Z RPS6KA4 (MSK2) Km app 4.2 Z ULK2 n/a 0.9 L MAPKAPK2 Km app -3.1 Z
BMPR1B (ALK6) n/a 14.5 L PTK2B (FAK2) Km app 4.2 Z KIT D816V n/a 0.9 L FGFR4 Km app -3.1 Z
INSRR (IRR) Km app 14.1 Z CLK2 Km app 4.1 Z CAMK1 (CaMK1) 10 0.8 A CASK n/a -3.1 L […]

## CN(C(=O)CN1CCOCC1)c1ccc2sc3c(-c4cccc5c(=O)cc(N6CC7CCC(C6)O7)oc45)cccc3c2c1 [NU5455]
  inhibition in the majority of the remaining 398 kinases: less than 10%
